From patent publication US20080004253A1, “Thiazolopyrimidine modulators of TRPV1” (priority 2006, published 2008) come the findings set out here.

In one test the target is T1, human TRPV1 (Homo sapiens, UniProt Q8NER1).
T1 construct: expressed in transfected cells; host or cells: HEK293 (hTRPV1/HEK293), zeocin selection
As to the kind of experiment: Functional assay: block of capsaicin-induced Ca2+ influx, human assay (hTRPV1/HEK293, FLIPR). Format: cell-based. The conditions noted are these: hTRPV1/HEK293 cells, 150 nM capsaicin challenge, Fluo-3 fluorescence; mean; > value = solubility limit in assay medium. The method in brief: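 HEK293 cells stably expressing human TRPV1, fluo3-loaded, preincubated 30 min with compound (serial 3-fold dilutions from 10 μM, duplicate) in 20 μM Ca2+ buffer. Capsaicin response taken as fluo3 fluorescence change before vs 100 s after agonist; IC50 by non-linear regression, mean values; free base or TFA salt.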

The next test addresses T2, rat TRPV1 (Rattus norvegicus, UniProt O35433).
T2 construct: expressed in transfected cells; host or cells: HEK293 (rTRPV1/HEK293), geneticin selection
Briefly: Functional assay: block of capsaicin-induced Ca2+ influx, rat assay (rTRPV1/HEK293, FLIPR). It is filed as cell-based. The note with it: rTRPV1/HEK293 cells, capsaicin challenge, Fluo-3 fluorescence; mean; > value = solubility limit in assay medium. The method in brief:
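Compounds, as free base or TFA salt, tested from 10 μM in three-fold steps on rTRPV1-transfected HEK293 cells, with 30 min preincubation in low-calcium (20 μM) buffer. Capsaicin-evoked Ca2+ influx measured by FLIPR fluo3 signal before and 100 s after addition. Averaged IC50 from non-linear fits.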

T2 sequence (O35433 whole entry): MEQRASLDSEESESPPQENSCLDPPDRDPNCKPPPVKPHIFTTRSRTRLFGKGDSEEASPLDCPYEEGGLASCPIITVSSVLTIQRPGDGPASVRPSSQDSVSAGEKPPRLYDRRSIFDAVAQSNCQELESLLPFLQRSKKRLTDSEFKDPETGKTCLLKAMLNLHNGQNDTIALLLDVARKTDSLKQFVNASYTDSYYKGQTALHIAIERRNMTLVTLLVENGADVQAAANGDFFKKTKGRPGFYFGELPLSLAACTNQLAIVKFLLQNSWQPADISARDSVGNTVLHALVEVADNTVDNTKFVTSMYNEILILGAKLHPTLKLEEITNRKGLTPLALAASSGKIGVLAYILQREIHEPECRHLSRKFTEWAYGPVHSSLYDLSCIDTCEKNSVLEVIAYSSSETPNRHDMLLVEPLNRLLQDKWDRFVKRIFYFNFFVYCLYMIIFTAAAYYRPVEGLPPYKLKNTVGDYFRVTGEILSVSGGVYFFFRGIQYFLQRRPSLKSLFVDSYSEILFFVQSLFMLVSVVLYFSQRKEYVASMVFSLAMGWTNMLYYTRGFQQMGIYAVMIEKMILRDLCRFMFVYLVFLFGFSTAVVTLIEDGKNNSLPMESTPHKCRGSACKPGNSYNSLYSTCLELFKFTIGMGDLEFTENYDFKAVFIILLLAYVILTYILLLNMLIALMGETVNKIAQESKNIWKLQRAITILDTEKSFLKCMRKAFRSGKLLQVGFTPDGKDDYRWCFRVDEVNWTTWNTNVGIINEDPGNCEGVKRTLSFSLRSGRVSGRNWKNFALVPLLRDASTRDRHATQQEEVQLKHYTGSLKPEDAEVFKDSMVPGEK
T1 sequence (Q8NER1 whole entry): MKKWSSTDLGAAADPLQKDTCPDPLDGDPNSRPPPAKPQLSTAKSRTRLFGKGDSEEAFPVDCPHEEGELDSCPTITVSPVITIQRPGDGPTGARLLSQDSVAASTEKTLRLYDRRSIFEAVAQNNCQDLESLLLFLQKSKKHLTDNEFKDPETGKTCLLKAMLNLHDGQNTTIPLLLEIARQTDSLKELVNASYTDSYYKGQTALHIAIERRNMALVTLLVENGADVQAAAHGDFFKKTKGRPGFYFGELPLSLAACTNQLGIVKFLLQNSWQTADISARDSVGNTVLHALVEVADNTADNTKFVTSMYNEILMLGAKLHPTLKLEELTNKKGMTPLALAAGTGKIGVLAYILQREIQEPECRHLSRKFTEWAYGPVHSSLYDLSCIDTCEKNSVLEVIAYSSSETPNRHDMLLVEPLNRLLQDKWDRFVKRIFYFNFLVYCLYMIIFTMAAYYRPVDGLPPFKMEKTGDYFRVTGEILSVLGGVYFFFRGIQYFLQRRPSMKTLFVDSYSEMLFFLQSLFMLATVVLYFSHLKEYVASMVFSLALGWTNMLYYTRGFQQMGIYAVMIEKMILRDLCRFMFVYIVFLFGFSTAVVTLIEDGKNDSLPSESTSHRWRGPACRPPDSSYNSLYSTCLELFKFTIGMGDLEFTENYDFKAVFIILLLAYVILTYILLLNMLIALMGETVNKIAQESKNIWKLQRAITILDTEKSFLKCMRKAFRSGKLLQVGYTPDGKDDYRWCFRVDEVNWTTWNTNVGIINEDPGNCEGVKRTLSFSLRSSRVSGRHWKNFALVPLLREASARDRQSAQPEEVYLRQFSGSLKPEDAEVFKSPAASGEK

Take `COC(=O)c1ccc(Nc2ncnc3sc(Nc4c(C)cccc4C)nc23)cc1` [Example 37, 4-[2-(2,6-Dimethyl-phenylamino)-thiazolo[5,4-d]pyrimidin-7-ylamino]-benzoic acid methyl ester]: the half-maximal inhibitory concentration (IC50) at human TRPV1 came to 134 nM; at rat TRPV1, 38 nM.

For `Cc1cccc(C)c1Nc1nc2c(Nc3ccc(C(F)(F)F)cc3)ncnc2s1` [Example 10, N^2-(2,6-Dimethyl-phenyl)-N^7-(4-trifluoromethyl-phenyl)thiazolo[5,4,d]pyrimidine-2,7-diamine], the IC50 against human TRPV1 is 26 nM; against rat TRPV1, 6 nM.

On to `CS(=O)(=O)c1ccc(Nc2ncnc3sc(Nc4c(Cl)cc(C(N)=O)cc4Cl)nc23)cc1` [Example 237, 3,5-Dichloro-4-[7-(4-methanesulfonyl-phenylamino)-thiazolo[5,4-d]pyrimidin-2-ylamino]-benzamide], for which the values for the 50% inhibitory concentration (IC50) against human TRPV1 and against rat TRPV1 were 840 nM and 189 nM, respectively.

Consider `CN1CCN(CCCNc2nc(Nc3ccc(C(F)(F)F)cc3)c3nc(Nc4c(Cl)cccc4Cl)sc3n2)CC1` [Example 153, N^2-(2,6-Dichloro-phenyl)-N^5-[3-(4-methyl-piperazin-1-yl)-propyl]-N^7-(4-trifluoromethyl-phenyl)-thiazolo[5,4-d]pyrimidine-2,5,7-diamine], for which the IC50 is 1420 nM on human TRPV1 and 440 nM on rat TRPV1.

For `CSc1nc(Nc2ccc(C(F)(F)F)cc2)c2nc(Nc3c(Cl)cccc3Cl)sc2n1` [Example 52, N^2-(2,6-Dichloro-phenyl)-5-methylsulfanyl-N^7-(4-trifluoromethyl-phenyl)-thiazolo[5,4-d]pyrimidine-2,7-diamine], the half-maximal inhibitory concentration (IC50) is 226 nM on human TRPV1 and 154 nM against rat TRPV1.

`FC(F)(F)c1ccc(Nc2nc(NCCCN3CCOCC3)nc3sc(Nc4c(Cl)cccc4Cl)nc23)cc1` [Example 100, N^2-(2,6-Dichloro-phenyl)-N^5-(3-morpholin-4-yl-propyl)-N^7-(4-trifluoromethyl-phenyl)-thiazolo[5,4-d]pyrimidine-2,5,7-triamine]: the IC50 turned out to be 17 nM against human TRPV1 and 6 nM at rat TRPV1.

As to `CS(=O)(=O)c1nc(Nc2ccc(C(F)(F)F)cc2)c2nc(Nc3c(Cl)cccc3Cl)sc2n1` [Example 53, N^2-(2,6-Dichloro-phenyl)-5-methanesulfonyl-N^7-(4-trifluoromethyl-phenyl)-thiazolo[5,4-d]pyrimidine-2,7-diamine], the concentration for half-maximal inhibition (IC50) against human TRPV1 amounted to 196 nM; against rat TRPV1 it was 93 nM.

As for `COC(=O)c1cc(Cl)c(Nc2nc3c(Nc4ccc(C(F)(F)F)cc4)ncnc3s2)c(Cl)c1` [Example 241, 3,5-Dichloro-4-[7-(4-trifluoromethyl-phenylamino)-thiazolo[5,4-d]pyrimidin-2-ylamino]-benzoic acid methyl ester], the IC50 against human TRPV1 came to 820 nM; on rat TRPV1 it was 3200 nM.

As for `O=S(=O)(c1ccc(Nc2ncnc3sc(Nc4ccccc4Cl)nc23)cc1)N1CCOCC1` [Example 216, N^2-(2-Chlorophenyl)-N^7-[4-(morpholin-4-ylsulfonyl)phenyl][1,3]thiazolo[5,4-d]pyrimidine-2,7-diamine], the half-maximal inhibitory concentration (IC50) at human TRPV1 stood at 24 nM; at rat TRPV1, 15 nM.

As to `Cc1cccc(Cl)c1Nc1nc2c(Nc3ccc(C(F)(F)F)nc3)ncnc2s1` [Example 15, N^2-(2-Chloro-6-methyl-phenyl)-N^7-(6-trifluoromethyl-pyridin-3-yl)-thiazolo[5,4-d]pyrimidine-2,7-diamine], the half-maximal inhibitory concentration (IC50) against human TRPV1 was 13 nM; against rat TRPV1, 5 nM.

Regarding `Cc1cccc(C)c1Nc1nc2c(NCc3ccccc3)ncnc2s1` [Example 43, N^7-Benzyl-N^2-(2,6-dimethyl-phenyl)-thiazolo[5,4-d]pyrimidine-2,7-diamine], the IC50 against human TRPV1 and at rat TRPV1 was greater than 6670 nM throughout.

Consider `Cc1cccc(C)c1Nc1nc2c(Nc3ccc(S(=O)(=O)C(C)C)cc3)ncnc2s1` [Example 122, N^2-(2,6-Dimethyl-phenyl)-N^7-[4-(Propane-2-sulfonyl)-phenyl]-thiazolo[5,4-d]pyrimidine-2,7-diamine], for which the IC50 against human TRPV1 is 87 nM; against rat TRPV1 it was 129 nM.

For orientation: IC50 means the concentration that gives 50% inhibition. A low value points to greater potency in that assay.
